13 compounds from PubChem BioAssay (NCI) can be followed below.

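Five concentrations, 48 hours, 96-well plates. TGI is the concentration that stops growth completely.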

Holding throughout (test): NCI-60 cell line screen, 48 h
Assay [1] concerns BT-549 breast.
Assay [2] has as its system 786-0 renal.
Assay [3] concerns HS 578T breast.
The subject of assay [4] is A498 renal.
Assay [5] deals with SW-620 colon.
Assay [6] deals with T-47D breast.
For assay [7], the system named is DU-145 prostate.
Assay [8] concerns COLO 205 colon.
Assay [9] has as its system SNB-19 CNS.
The test system of assay [10] is SF-539 CNS.

Regarding `CC(=O)O[C@H]1C(=O)[C@@]2(C)[C@H]([C@H](OC(=O)c3ccncc3)[C@]3(O)C[C@H](OC(=O)[C@H](O)[C@@H](NC(=O)c4ccccc4)c4ccccc4)C(C)=C1C3(C)C)[C@]1(OC(C)=O)CO[C@@H]1C[C@@H]2O`, the TGI in assay [1] is greater than 25 µM; in assay [2], greater than 25 µM; in [3], greater than 21 µM; in [4], greater than 25 µM; in assay [5], greater than 25 µM; in [6], greater than 25 µM. Besides, the TGI is greater than 25 µM in [7], greater than 20.1 µM in assay [8], greater than 25 µM in [9] and 4.55 µM in assay [10].
For the compound `Cc1ccc2cccc(OC(=O)c3cc4c(cc3Cl)Sc3nccn3S4(=O)=O)c2n1`, the TGI is greater than 78.1 µM in assay [1]; 43.6 µM in [2]; greater than 100 µM in [3]; 45 µM in assay [4]; 40.3 µM in assay [5]; 13 µM in [6]. Besides, the TGI in assay [7] was determined as 18.1 µM; in assay [8], 29.4 µM; in [9] it was 46.3 µM; in [10] it was 17.2 µM.
Consider `CN(C)CC1CN(C(=O)Nc2ccccc2)C(=N)O1` (stereo not given), for which the TGI in [1], in [2], in assay [3], in [4], in assay [5] and in assay [6] was greater than 100 µM each time. Moreover, the TGI in assay [7], in assay [8], in [9] and in assay [10] was greater than 100 µM throughout.
In the case of `CCOC(=O)C1C(=O)CC(C)(O)C(C(=O)OCC)C1c1ccc(OC)cc1` (stereo not given), the TGI in assay [1], in [2], in assay [3], in assay [4], in [5] and in assay [6] was greater than 100 µM each time. The TGI in assay [7], in assay [8], in assay [9] and in [10] was greater than 100 µM throughout.
Turning to `COc1cc2c(cc1OC)C(=O)/C(=C/c1ccccc1)C2`, the TGI was greater than 100 µM in assay [1]; greater than 100 µM in assay [2]; greater than 100 µM in assay [3]; 7.24 µM in assay [4]; greater than 100 µM in assay [5]; greater than 100 µM in assay [6]. Also, the TGI in assay [7], in [8], in assay [9] and in [10] was greater than 100 µM throughout.
For the compound `CO[C@H]1C[C@H](O[C@H]2CC[C@]3(C=O)[C@H]4CC[C@]5(C)[C@@H](C6=CC(=O)OC6)CC[C@]5(O)[C@@H]4CC[C@]3(O)C2)O[C@H](C)[C@H]1O[C@@H]1O[C@H](CO[C@@H]2O[C@H](CO)[C@@H](O)[C@H](O)[C@H]2O)[C@@H](O)[C@H](O)[C@H]1O`, the TGI was 0.164 µM in assay [1]; 0.0781 µM in assay [2]; 0.518 µM in assay [3]; 0.533 µM in assay [4]; 0.179 µM in assay [5]; 0.385 µM in assay [6]. For the same compound, the TGI came out at 0.0413 µM in [7], 0.348 µM in assay [8], 0.83 µM in [9] and 0.12 µM in assay [10].
Regarding `COc1cc(C2c3cc4c(cc3OC(O)C2C)OCO4)cc(OC)c1O` (stereo not given), the TGI in [1] is greater than 100 µM; in assay [2], greater than 100 µM; in assay [3], 46.4 µM; in assay [4], 80.6 µM; in [5], greater than 100 µM; in assay [6], greater than 68.6 µM. Also, the TGI is greater than 100 µM in assay [7], 45.8 µM in assay [8], greater than 46.4 µM in assay [9] and 30.6 µM in [10].
As for `CC[C@]12C=CCN3CCC4(c5cc(N=Nc6ccc([N+](=O)[O-])cc6)c(OC)cc5N(C)[C@H]4[C@@](O)(C(=O)OC)[C@@H]1OC(C)=O)[C@@H]32` (stereo not given in full), the TGI in [1] was greater than 100 µM; in [2], 25.1 µM; in [3] it was 77.8 µM; in [4], 77.2 µM; in assay [5] it was greater than 100 µM; in assay [6], greater than 100 µM. In addition, the TGI in assay [7] is greater than 100 µM; in assay [8], 42.5 µM; in [9], greater than 100 µM; in assay [10], 45.8 µM.
Turning to `CCC(CCCCC1CC[C@H]2CC(=O)C[C@@H]12)OC` (stereo not given in full), the TGI in assay [1], in assay [2], in [3], in assay [4], in assay [5] and in assay [6] was greater than 100 µM throughout. The TGI in assay [7], in [8], in [9] and in assay [10] was greater than 100 µM each time.
Take `CCOC(=O)c1nc2ccc(C(F)(F)F)cc2nc1Nc1ccc(OC)c(OC)c1`: the TGI in assay [1], in assay [2], in assay [3], in [4], in assay [5] and in [6] was greater than 100 µM throughout. Moreover, the TGI in [7], in assay [8], in assay [9] and in assay [10] was greater than 100 µM in each case.
`Clc1ccc(CSCc2ccc(Cl)cc2Cl)c(Cl)c1`: the TGI in assay [1], in assay [2], in assay [3], in assay [4], in assay [5] and in assay [6] was greater than 100 µM throughout. Besides, the TGI in [7], in [8], in assay [9] and in assay [10] was greater than 100 µM throughout.
As to `CC[C@@H]1C[C@@H](O)[C@@H]2[C@H](O)[C@H](O)CN2C1`, the TGI in assay [1], in [2], in assay [3], in assay [4], in assay [5] and in assay [6] was greater than 100 µM in each case. The TGI in [7], in assay [8], in assay [9] and in assay [10] was greater than 100 µM each time.
With `CN(C)N1C(=O)CC2(CCN(CCCC(=O)c3ccc(F)cc3)CC2)C1=O`, the TGI in [1], in assay [2], in assay [3], in assay [4], in assay [5] and in assay [6] was greater than 100 µM throughout. Also, the TGI in assay [7], in assay [8], in assay [9] and in [10] was greater than 100 µM throughout.
